In one test the target is T1, PKM2, human recombinant (Homo sapiens, UniProt P14618).
T1 construct: purchased BPS 50295
Put plainly: PKM2 enzymatic activity assay (Kinase-Glo Plus luminescence).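 For Max activity Group: percent increase over no-compound signal after subtracting the no-PKM2 background.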 In kind it is biochemical. The following applies: for AC50: 0.1 nM PKM2, 0.1 mM ADP, 0.5 mM PEP, 1 hour, room temperature, read-out: AC50 group; for Emax: 1 h, read-out: Max activity Group; for Emax / Max activity Group: maximum percent activity, luminescence without compound = 0% activity. Here is the method:
PKM2 performs the following enzymatic reaction, where the PKM2 substrates, PEP (phosphoenolpyruvate) and ADP, are converted to pyruvate and ATP as follows:
All of the enzymatic reactions were conducted in duplicates at room temperature for 1 hour in a 50 μL mixture containing: • PKM2 assay buffer (50 mM Imidazole, pH 7.2; 7 mM MgCl2; 50 mM KCl; 0.01% Tween; • and 0.05% BSA), 0.1 mM ADP, 0.5 mM PEP, 0.1 nM PKM2 enzyme (PKM2, human recombinant (BPS catalog number 50295)) and the indicated test compound. Fructose 1,6 biphosphat e, (FBP (Sigma)) was used as a positive control for activation at concentration of 0.5 mM. After enzymatic reactions, 50 μL of Kinase-Glo® Plus reagent (Promega kit) was added to each well and luminescence was measured using a BioTek Synergy™ 2 microplate reader.
PKM2 activity assays were performed in duplicates at each concentration. The luminescence data were analyzed using the computer software, GraphPad PRISM®. In the absence of the compound, the luminescence was defined as 0% activity. The percent activity in the presence of each compound was calculated according to the following equation:
% Activity=[(L−Lb)/(Lt−Lb)−1]×100%
where L=the luminescence in the presence of the test compound, Lb=the luminescence in the absence of PKM2, and Lt=the luminescence intensity in the absence of the test compound. The % activity values versus a series of compound concentrations were plotted using non-linear regression analysis of Sigmoidal dose-response curve generated with the equation Y=B+(T−B)/1+10^((LogEC50-X)×Hill Slope), where Y=percent activity, B=minimum percent activity, T=maximum percent activity, X=logarithm of compound and Hill Slope=slope factor or Hill coefficient. The AC50 values, shown in Table 2 were determined for the indicated test compounds as the concentration causing a half-maximal percent activity.
Background: Kinase-Glo reads ATP consumption through a luciferase reaction.

The test system of another test is H1299 (lung). Put plainly: Cell proliferation assay (CellTiter-Glo Luminescent). The test is classed as cell-based, human. The conditions noted are these: 96 hr. Here is the method: 1. Cells were grown according to the ATCC conditions. 2. Cell feeding (passaging) was timed such that the cells were in exponential growth phase at the time of the assay.
3. On day 1, H1299 cells were counted. Cell numbers were adjusted to the desired cell concentration in Media 1: RPMI 1640 Invitrogen 11879020 (that contained no glucose or pyruvate) with 10% FBS, and 1 mM D-Glucose (4 μl of 2.5 M D-glucose G8769 was added in preparing 10 ml RPMI media with 1 mM glucose). A 200 μl of H1299 cell suspension was added to appropriate wells in the 96-well plates, and incubated at 37° C. in the CO2 cell incubator under normal growing conditions for overnight. 4. On day 2, a 100 mM stock concentration of test compounds in 100% DMSO was prepared and serially diluted with 100% DMSO to 33.33 mM, 11.11 mM, and 3.7 mM. A 1:1000 dilution was made to each concentration in media 1 (yielding 0.1% final DMSO concentration). The media was aspirated completely from the cell plate. Each 100 μl of the following solutions (100 μM, 33.33 μM, 11.11 μM, and 3.7 μM) was added to the cells. DMSO in a final concentration of 0.1%, and media without DMSO, were added to the cells and used as a negative control. Empty wells around the experimental wells were filled with PBS. The plate was sealed with parafilm to reduce evaporation. 5. The plate was incubated under normal conditions (5% CO2, and 95% air), for 96 hours at 37° C. 6. On day 6 (after 96 hr incubation), the plate was equilibrated to room temperature for approximately 30 minutes. A 100 μl of CellTiter-Glo Reagent was added in each well of the plate. Contents were mixed for 2 minutes on an orbital shaker to induce cell lysis. The plate was incubated at room temperature for 10 minutes to stabilize luminescent signal. Luminescence was recorded with Flexstation 3.
Unless noted otherwise, proliferation of control or compound treated H1299 cells was measured using CellTiter-Glo Luminescent assay following 96 hr incubation of the cells with and without test compounds. The AC50 values, shown in Table 3, were coded according to follows: A: <3 μM; B: 3-10 μM; C: 10-20 μM; or D: >20 μM.

In the next test the test system is 786-O (kidney). Described as above. The test is classed as cell-based. The following applies: Homo sapiens, 786-0, 1 mM glucose, 96 hr.
Where [1] appears, read: Homo sapiens, NCI-H1299, 1 mM glucose.

Consider 16 compounds from patent US20120302609A1, “Pyrazolines for the Modulation of PKM2” (Dynamix Pharmaceuticals LTD., priority 2011, published 2012).

For orientation: AC50 means the midpoint of the concentration-response curve, whichever way the signal moves.

Structures are written as SMILES. Where only a bound is given, the exact number is not on record here.

T1 sequence (P14618 whole entry): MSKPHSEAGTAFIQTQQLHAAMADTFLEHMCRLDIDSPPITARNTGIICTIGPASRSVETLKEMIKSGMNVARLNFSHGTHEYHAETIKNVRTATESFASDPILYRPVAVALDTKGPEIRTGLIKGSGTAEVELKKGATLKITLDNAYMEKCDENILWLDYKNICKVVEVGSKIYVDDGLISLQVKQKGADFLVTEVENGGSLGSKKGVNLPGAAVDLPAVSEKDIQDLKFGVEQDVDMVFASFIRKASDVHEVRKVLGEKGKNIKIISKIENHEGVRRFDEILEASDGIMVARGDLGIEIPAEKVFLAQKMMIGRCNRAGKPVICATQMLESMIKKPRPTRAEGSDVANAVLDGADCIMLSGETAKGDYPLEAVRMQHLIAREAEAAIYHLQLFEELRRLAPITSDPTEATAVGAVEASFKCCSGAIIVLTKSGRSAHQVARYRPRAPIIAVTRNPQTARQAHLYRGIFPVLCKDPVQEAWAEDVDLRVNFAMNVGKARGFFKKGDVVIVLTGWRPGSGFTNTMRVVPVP

In the case of `COc1ccc(C2CC(c3ccc(NS(=O)(=O)c4ccc(Cl)cc4)cc3)=NN2C(C)=O)cc1` (racemic) [Compound 26A, N-(4-(1-Acetyl-5-(4-methoxyphenyl)-4,5-dihydro-1H-pyrazol-3-yl)phenyl)-4-chloro benzenesulfonamide], the AC50 on PKM2, human recombinant was ≤ 1 µM; with H1299 (lung) (setting [1]), > 20 µM; in the test on 786-O (kidney) it was 3 to 10 µM. Besides, at PKM2, human recombinant, the Emax was ≤ 130%.
As to `COc1ccc(C2CC(c3ccc(NS(=O)(=O)c4cccc(C(F)(F)F)c4)cc3)=NN2C(C)=O)cc1` (stereo not shown) [Compound 34A, N-(4-(1-Acetyl-5-(4-methoxyphenyl)-4,5-dihydro-1H-pyrazol-3-yl)phenyl)-3-(trifluoromethyl)benzenesulfonamide], the AC50 with H1299 (lung) (setting [1]) was > 20 µM; with 786-O (kidney), 3 to 10 µM.
Turning to `COc1ccc(S(=O)(=O)Nc2ccc(C3=NN(C(C)=O)C(c4ccc(F)cc4)C3)cc2)cc1` (stereo not shown) [Compound 45A], the AC50 at PKM2, human recombinant is ≤ 1 µM; with H1299 (lung) (setting [1]) it was > 20 µM; in the test with 786-O (kidney), 3 to 10 µM. For the same compound, on PKM2, human recombinant, the Emax is ≤ 130%.
Take `CC(=O)N1N=C(c2ccc(NS(=O)(=O)c3ccc(F)cc3)cc2)CC1c1ccc(F)cc1` (single isomer, unassigned) [Compound 36A]: the AC50 on PKM2, human recombinant is ≤ 1 µM; with H1299 (lung) (setting [1]), > 20 µM; with 786-O (kidney) it was 3 to 10 µM.
With `COc1cccc([C@H]2CC(c3ccc(NS(=O)(=O)c4ccc(F)cc4)cc3)=NN2C(C)=O)c1` [Compound 42A, (R)—N-(4-(1-Acetyl-5-(3-methoxyphenyl)-4,5-dihydro-1H-pyrazol-3-yl)phenyl)-4-fluoro benzenesulfonamide], the half-maximal activity concentration (AC50) with 786-O (kidney) fell in the range of 10 to 20 µM.
As for `COc1ccc(C2CC(c3ccc(NS(=O)(=O)c4ccc(Cl)cc4)cc3)=NN2C(C)=O)cc1` (single isomer, unassigned) [Compound 38A], the half-maximal activity concentration (AC50) in the test on H1299 (lung) (1 mM glucose) is > 20 µM.
Consider `COc1ccc(C2CC(c3ccc(NS(=O)(=O)c4cccc(OC)c4)cc3)=NN2C(C)=O)cc1` (single isomer, unassigned) [Compound 29A], for which the AC50 in the test with H1299 (lung) (setting [1]) is > 20 µM.
Take `COc1ccc(C2CC(c3ccc(NS(=O)(=O)c4ccc(OC)cc4)cc3)=NN2C(C)=O)cc1` (single isomer, unassigned) [Compound 39A]: at PKM2, human recombinant, the AC50 was ≤ 1 µM and the “Max activity Group” value was “C (C: ≦130%)”. In the test with H1299 (lung) (setting [1]), the AC50 was > 20 µM.
For the compound `COc1ccc(C2CC(c3ccc(NS(=O)(=O)c4ccc(C(F)(F)F)cc4)cc3)=NN2C(C)=O)cc1` (stereo not shown) [Compound 21A, N-(4-(1-Acetyl-5-(4-methoxyphenyl)-4,5-dihydro-1H-pyrazol-3-yl)phenyl)-4-(trifluoromethyl)benzenesulfonamide], the concentration at half-maximal activity (AC50) on PKM2, human recombinant was ≤ 1 µM; in the test on H1299 (lung) (setting [1]), 10 to 20 µM; in the test with 786-O (kidney), 3 to 10 µM. Also, the Emax at PKM2, human recombinant is 130 to 200%.
`COc1ccc(C2CC(c3ccc(NS(=O)(=O)c4ccc(Cl)cc4)cc3)=NN2C(C)=O)cc1` (single isomer, unassigned) [Compound 37A]: the AC50 in the test with H1299 (lung) (setting [1]) is > 20 µM.
As for `COc1ccc(C2CC(c3ccc(NS(=O)(=O)c4cccc(F)c4)cc3)=NN2C(C)=O)cc1` (stereo not shown) [Compound 33A, N-(4-(1-Acetyl-5-(4-methoxyphenyl)-4,5-dihydro-1H-pyrazol-3-yl)phenyl)-3-fluoro benzenesulfonamide], at PKM2, human recombinant, the AC50 was ≤ 1 µM and the Emax was 130 to 200%. Further, the half-maximal activity concentration (AC50) with H1299 (lung) (setting [1]) is > 20 µM.
Consider `COc1ccc(C2CC(c3ccc(NS(=O)(=O)c4ccc(F)cc4)cc3)=NN2C(C)=O)cc1Cl` (stereo not shown) [Compound 32A, N-(4-(1-Acetyl-5-(3-chloro-4-methoxyphenyl)-4,5-dihydro-1H-pyrazol-3-yl)phenyl)-4-fluorobenzenesulfonamide], for which the AC50 in the test on H1299 (lung) (setting [1]) was > 20 µM; in the test on 786-O (kidney) it was 3 to 10 µM.
Take `COc1ccc(C2CC(c3ccc(NS(=O)(=O)c4ccc(OC)cc4)cc3)=NN2C(C)=O)cc1` (single isomer, unassigned) [Compound 40A]: the AC50 is ≤ 1 µM at PKM2, human recombinant; > 20 µM with H1299 (lung) (1 mM glucose); > 20 µM with H1299 (lung) (Complete media). At PKM2, human recombinant, the “Max activity Group” value was “A (A: ≧200%)”.
On to `COc1ccc(C2CC(c3ccc(NS(=O)(=O)c4cccc(OC)c4)cc3)=NN2C(C)=O)cc1` (racemic) [Compound 18A, N-(4-(1-Acetyl-5-(4-methoxyphenyl)-4,5-dihydro-1H-pyrazol-3-yl)phenyl)-3-methoxy benzenesulfonamide], for which, on PKM2, human recombinant, the AC50 is ≤ 1 µM and the Emax lay in the range of 130 to 200%. Moreover, the AC50 with H1299 (lung) (setting [1]) was > 20 µM.
Take `CC(=O)N1N=C(c2ccc(NS(=O)(=O)c3ccc(F)cc3)cc2)C[C@@H]1c1ccc(C)cc1` [Compound 41A, (R)—N-(4-(1-Acetyl-5-(p-tolyl)-4,5-dihydro-1H-pyrazol-3-yl)phenyl)-4-fluorobenzene sulfonamide]: the values for the half-maximal activity concentration (AC50) in the test on H1299 (lung) (setting [1]) and with 786-O (kidney) were 10 to 20 µM and 3 to 10 µM, respectively.
`COc1ccccc1C1CC(c2ccc(NS(=O)(=O)c3ccc(F)cc3)cc2)=NN1C(C)=O` (stereo not shown) [Compound 47A, N-(4-(1-Acetyl-5-(2-methoxyphenyl)-4,5-dihydro-1H-pyrazol-3-yl)phenyl)-4-fluoro benzenesulfonamide]: the AC50 in the test on H1299 (lung) (setting [1]) was > 20 µM; in the test with 786-O (kidney), 3 to 10 µM.
